Where two headings read alike, the source gives them in different places.
Experiments:
[1] = target: T1, full-length NS3/NS4A-2 (HCV NS3 protease) (Hepatitis C virus genotype 1a, UniProt P27958); assay: NS3-NS4 protease assay / NS3 inhibition assay (RETS1 substrate, fluorescence kinetic read); assay type: biochemical
T1 construct: Recombinant E. coli or Baculovirus full-length NS3 was diluted to 3.33 μM with assay buffer; made in house; host or cells: E. coli or baculovirus (BV) expression system
Outline: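 Full-length NS3 from E. coli (2 nM in assay) or baculovirus (3 nM) was precomplexed with excess NS4A-2 peptide, then preincubated 10 min at room temperature with serially diluted compounds starting at 50 microM. Reaction was started with RETS1 substrate at 8 μM before addition and read kinetically for 30 min (ex 335/em 495 nm). Four-parameter IC50s were converted to Ki by Cheng-Prusoff using Km 2.03 μM (E. coli) or 1.74 μM (BV).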

[2] = tested on: HCV sub-genomic replicon in GS4.3 cells (HuH-7 hepatoma cells); assay: Quantitation by ELISA of Neomycin phosphotransferase II (NPTII) in the HCV sub-genomic replicon, GS4.3; assay type: cell-based, hepatitis C virus; settings: Hepatitis C virus, Huh-7; GS4.3 cells, 72 h incubation, NPTII ELISA; read-out: Replicon EC50
Outline: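 HuH-7 GS4.3 cells carrying HCV sub-genomic replicon 1377/NS3-3′, treated 72 h at 37 °C without G418 with 3-fold dilutions from 10 μM to 56 pM (1% DMSO). NPTII in cell lysates measured by direct ELISA with TMB readout at 450 nm. EC50 from 4-parameter fit of percent DMSO-control signal.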

[3] = recombinant E. coli or Baculovirus full-length NS3 with NS4A-2, read-out: NS3-NS4 IC50

T1 sequence (P27958 1027-1657): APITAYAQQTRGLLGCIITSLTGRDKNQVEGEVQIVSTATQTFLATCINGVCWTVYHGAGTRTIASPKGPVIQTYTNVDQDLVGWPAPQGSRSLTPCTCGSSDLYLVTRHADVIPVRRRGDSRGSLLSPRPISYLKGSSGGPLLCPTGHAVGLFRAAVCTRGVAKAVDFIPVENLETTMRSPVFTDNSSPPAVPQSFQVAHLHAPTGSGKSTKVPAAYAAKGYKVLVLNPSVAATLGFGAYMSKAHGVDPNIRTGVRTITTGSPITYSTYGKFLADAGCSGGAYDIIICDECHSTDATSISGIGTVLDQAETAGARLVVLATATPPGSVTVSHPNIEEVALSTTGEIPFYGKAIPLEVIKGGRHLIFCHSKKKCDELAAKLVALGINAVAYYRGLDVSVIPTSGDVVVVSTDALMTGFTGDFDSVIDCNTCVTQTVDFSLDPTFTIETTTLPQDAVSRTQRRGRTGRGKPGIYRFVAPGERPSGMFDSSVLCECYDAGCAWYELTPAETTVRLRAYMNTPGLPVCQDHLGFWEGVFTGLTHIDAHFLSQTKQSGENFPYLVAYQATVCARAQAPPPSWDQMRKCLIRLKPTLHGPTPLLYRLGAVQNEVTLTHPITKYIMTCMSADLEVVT

SMILES	IC50 [1, 3]	EC50 [2]	IC50 [1]
O=C(CCC(F)(F)F)N[C@H]1CCCCC/C=C\[C@@H]2C[C@@]2(C(=O)NS(=O)(=O)C2CC2)NC(=O)[C@@H]2C[C@@H](OC(=O)N3Cc4cccc(Cl)c4C3)CN2C1=O [Compound 143]	< 100 nM	< 100 nM	
O=C(N[C@H]1CCCCC/C=C\[C@@H]2C[C@@]2(C(=O)NS(=O)(=O)NC2CC2)NC(=O)[C@@H]2C[C@@H](OC(=O)N3CCc4ccccc4C3)CN2C1=O)OC1CCCC1 [Compound 231]	< 100 nM	< 100 nM	
CC(C)(C)CNC(=O)[C@@]12C[C@H]1/C=C\CCCCC[C@H](NC(=O)OC(C)(C)C)C(=O)N1C[C@H](OC(=O)N3Cc4cccc(F)c4C3)C[C@H]1C(=O)N2 [Compound 616]	< 1000 nM	< 1000 nM	
CC(C)(O)CC(=O)N[C@H]1CCCCC/C=C\[C@@H]2C[C@@]2(C(=O)NS(=O)(=O)C2CC2)NC(=O)[C@@H]2C[C@@H](OC(=O)N3Cc4cccc(F)c4C3)CN2C1=O [Compound 252]	< 100 nM	< 10000 nM	
CC(C)OC(=O)N[C@H]1CCC(F)(F)CC/C=C\[C@@H]2C[C@@]2(C(=O)NS(=O)(=O)C2CC2)NC(=O)[C@@H]2C[C@@H](OC(=O)N3Cc4ccccc4C3)CN2C1=O [Compound 1012]	< 100 nM	< 100 nM	
O=C(N[C@H]1CCCCC/C=C\[C@@H]2C[C@@]2(C(=O)NS(=O)(=O)N2CC(F)(F)C2)NC(=O)C2C[C@@H](OC(=O)N3Cc4ccccc4C3)CN2C1=O)OC1CCCC1 (stereo partly drawn) [Compound 230]	< 100 nM	< 1000 nM	
O=C(N[C@H]1CCCCC/C=C\[C@@H]2C[C@@]2(C(=O)NS(=O)(=O)c2cc(Cl)sc2Cl)NC(=O)[C@@H]2C[C@@H](OC(=O)N3Cc4cccc(Cl)c4C3)CN2C1=O)OC1CCCC1 [Compound 174]	< 100 nM	< 100 nM	
CC(C)(C)OC(=O)N[C@H]1CCCCCC[C@@H]2C[C@@]2(C(=O)NS(=O)(=O)C2CC2)NC(=O)[C@@H]2C[C@@H](OC(=O)N3Cc4cccc(F)c4C3)CN2C1=O [Compound 269]	< 100 nM	< 100 nM	
CCCNC(=O)[C@@]12C[C@H]1/C=C\CCCCC[C@H](NC(=O)OC(C)(C)C)C(=O)N1C[C@H](OC(=O)N3Cc4ccccc4C3)C[C@H]1C(=O)N2 [Compound 600]	< 100 nM	< 1000 nM	
O=C1N[C@]2(C(=O)NS(=O)(=O)C3CC3)C[C@H]2/C=C\CCCCC[C@H](NCc2ccccc2)C(=O)N2C[C@H](OC(=O)N3Cc4cccc(F)c4C3)C[C@@H]12 [Compound 905]	< 100 nM	< 100 nM	
O=C(N[C@H]1CCCCC/C=C\[C@@H]2C[C@@]2(C(=O)O)NC(=O)C2C[C@@H](OC(=O)N3Cc4cccc(F)c4C3)CN2C1=O)c1cnccn1 (stereo partly drawn) [Compound 181]	< 1000 nM	< 10000 nM	
O=C1N[C@]2(C(=O)NCC3CC3)C[C@H]2/C=C\CCCCC[C@H](NC2CCC2)C(=O)N2C[C@H](OC(=O)N3Cc4cccc(F)c4C3)C[C@@H]12 [Compound 624]	< 10000 nM	< 1000 nM	
COC(=O)c1cccc(CNC(=O)[C@@]23C[C@H]2/C=C\CCCCC[C@H](NC(=O)OC(C)(C)C)C(=O)N2C[C@H](OC(=O)N4Cc5cccc(F)c5C4)C[C@H]2C(=O)N3)c1 [Compound 602]	< 1000 nM	< 1000 nM	
N[C@H]1CCCCC/C=C\[C@@H]2C[C@@]2(C(=O)NS(=O)(=O)c2cccs2)NC(=O)[C@@H]2C[C@@H](OC(=O)N3Cc4cccc(Cl)c4C3)CN2C1=O [Compound 169]		< 10000 nM	< 100 nM
O=C1N[C@]2(C(=O)NS(=O)(=O)C3CC3)C[C@H]2/C=C\CCCCC[C@H](Nc2nccs2)C(=O)N2C[C@H](OC(=O)N3Cc4cccc(F)c4C3)C[C@@H]12 [Compound 924]	< 100 nM	< 100 nM	
CC(C)(C)NC(=O)N[C@H]1CCCCC/C=C\[C@@H]2C[C@@]2(C(=O)O)NC(=O)C2C[C@@H](OC(=O)N3Cc4cccc(Cl)c4C3)CN2C1=O (stereo partly drawn) [Compound 177]	< 100 nM	< 10000 nM	
CC(C)(C)OC(=O)N[C@H]1CCCCC/C=C\[C@@H]2C[C@@]2(C(=O)NC#N)NC(=O)C2C[C@@H](OC(=O)N3Cc4cccc(Cl)c4C3)CN2C1=O (stereo partly drawn) [Compound 641]	< 100 nM	< 10000 nM	
CC(C)(C)OC(=O)N[C@H]1CCCCC/C=C\[C@@H]2C[C@@]2(C(=O)NS(=O)(=O)C2CC2)NC(=O)[C@@H]2C[C@@H](OC(=O)N3CCc4cccc(Cl)c4C3)CN2C1=O [Compound 255]	< 100 nM	< 100 nM	

Source: patent publication US7829665B2 (priority 2005, dated 2010)
